# Measured values as given in patent publication US11285156B2, “Substituted piperazines as KRAS G12C inhibitors” (Amgen Inc., priority 2018, dated 2022).
# Read-outs that look alike come from different tables or passages of the source.
# Legend:
# [1] = test system: Phosphorylation of ERK1/2 in MIA PaCa-2 cells; assay: Phospho-ERK1/2 MSD assay in MIA PaCa-2 cells; format: cell-based; details: read-out: p-ERK IC50 (2 h, MiaPaCa-2; μM), 2 h compound treatment, MIA PaCa-2 cells, EGF stimulated
# Outline: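 Phospho-ERK1/2 measured by MSD electrochemiluminescence kit in RIPA lysates of MIA PaCa-2 cells. Cells were treated with compound titrations for 2 or 4 h at 37 °C, 5% CO2, followed by a 10 min pulse of 10 ng/mL EGF.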
# [2] = test system: Phosphorylation of ERK1/2 in A549 cells; assay: Phospho-ERK1/2 MSD assay in A549 cells; format: cell-based; details: read-out: p-ERK IC50 (2 h, A549; μM), 2 h compound treatment, A549 cells, EGF stimulated
# Outline: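 MSD electrochemiluminescent read-out of phospho-ERK1/2 in RIPA lysates. Cells in RPMI 1640 with 10% FBS received titrated compound for 2 or 4 h, then 10 ng/mL EGF for 10 min before ice-cold PBS wash and lysis.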
# [3] = molecular target: GDP-bound KRAS protein (aa 1-169), containing both G12C and C118A amino acid substitutions (Homo sapiens (Human), UniProt P01116, C118A/G12C); assay: Coupled nucleotide exchange assay (SOS-mediated nucleotide exchange, AlphaScreen); format: biochemical; details: read-out: Coupled exchange IC50 (5 min; μM); 5 min compound pre-incubation
# Chain of GDP-bound KRAS protein (aa 1-169), containing both G12C and C118A amino acid substitutions (P01116 other isoform, or with tags, fused parts or gaps G12C/C118A): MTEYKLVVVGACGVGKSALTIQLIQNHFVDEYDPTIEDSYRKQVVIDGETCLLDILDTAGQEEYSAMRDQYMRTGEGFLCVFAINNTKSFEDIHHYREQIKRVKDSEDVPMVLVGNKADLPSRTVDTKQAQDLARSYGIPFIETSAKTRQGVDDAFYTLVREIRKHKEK
Structure (SMILES),"IC50 ([1]; Homo sapiens, MIA PaCa-2, 2 h)","IC50 ([2]; Homo sapiens, A549, 2 h)",IC50 [3],IC50 [1],IC50 [2]
"C=CC(=O)N1C[C@H](C)N(c2nc(=O)n(-c3c(C)ccnc3C(C)C)c3nc(-c4cccc(F)c4)c(Cl)cc23)C[C@H]1C (atropisomer, axis not shown; (M)) [Example 92-52, (M)-6-Chloro-4-[(2S,5R)-2,5-dimethyl-4-prop-2-enoyl-piperazin-1-yl]-7-(3-fluorophenyl)-1-(2-isopropyl-4-methyl-3-pyridyl)pyrido [2,3-d]pyrimidin-2-one]",0.196 µM,> 7.5 µM,0.161 µM,,
"C=CC(=O)N1C[C@H](C)N(c2nc(=O)n(-c3c(C)ccnc3C(C)C)c3nc(-c4cccc(C)c4)c(Cl)cc23)C[C@H]1C (atropisomer, axis not shown; (M)) [Example 92-53, (M)-6-Chloro-4-[(2S,5R)-2,5-dimethyl-4-prop-2-enoyl-piperazin-1-yl]-1-(2-isopropyl-4-methyl-3-pyridyl)-7-(m-tolyl)pyrido[2,3-d]pyrimidin-2-one]",0.309 µM,> 7.5 µM,0.135 µM,,
"C=CC(=O)N1C[C@H](C)N(c2nc(=O)n(-c3c(C)ccnc3C(C)C)c3nc(-c4cccc(Cl)c4)c(Cl)cc23)C[C@H]1C (atropisomer, axis not shown; (M)) [Example 92-54, (M)-6-Chloro-7-(3-chlorophenyl)-4-[(2S,5R)-2,5-dimethyl-4-prop-2-enoyl-piperazin-1-yl]-1-(2-isopropyl-4-methyl-3-pyridyl)pyrido [2,3-d]pyrimidin-2-one]",0.217 µM,> 7.5 µM,0.169 µM,,
"C=CC(=O)N1C[C@H](C)N(c2nc(=O)n(-c3c(C)ccnc3C(C)C)c3nc(-c4ccccc4CC)c(Cl)cc23)C[C@H]1C (atropisomer, axis not shown; (M)) [Example 92-55, (M)-6-Chloro-4-[(2S,5R)-2,5-dimethyl-4-prop-2-enoyl-piperazin-1-yl]-7-(2-ethylphenyl)-1-(2-isopropyl-4-methyl-3-pyridyl)pyrido [2,3-d]pyrimidin-2-one]",0.018 µM,> 7.5 µM,0.021 µM,,
"C=CC(=O)N1C[C@H](C)N(c2nc(=O)n(-c3c(C)ccnc3C(C)C)c3nc(-c4ccc(F)cc4)c(Cl)cc23)C[C@H]1C (atropisomer, axis not shown; (M)) [Example 92-57, (M)-6-Chloro-4-[(2S,5R)-2,5-dimethyl-4-prop-2-enoyl-piperazin-1-yl]-7-(4-fluorophenyl)-1-(2-isopropyl-4-methyl-3-pyridyl)pyrido [2,3-d]pyrimidin-2-one]",0.126 µM,> 7.5 µM,0.126 µM,,
"C=CC(=O)N1C[C@H](C)N(c2nc(=O)n(-c3c(C)ccnc3C(C)C)c3nc(-c4cccc(C)c4F)c(Cl)cc23)C[C@H]1C (atropisomer, axis not shown; (M)) [Example 92-58, (M)-6-Chloro-4-[(2S,5R)-2,5-dimethyl-4-prop-2-enoyl-piperazin-1-yl]-7-(2-fluoro-3-methyl-phenyl)-1-(2-isopropyl-4-methyl-3-pyridyl)pyrido [2,3-d]pyrimidin-2-one]",0.023 µM,> 7.5 µM,0.074 µM,,
"C=CC(=O)N1C[C@H](C)N(c2nc(=O)n(-c3c(C)ccnc3C(C)C)c3nc(-c4cccc(F)c4C)c(Cl)cc23)C[C@H]1C (atropisomer, axis not shown; (M)) [Example 92-59, (M)-6-Chloro-4-[(2S,5R)-2,5-dimethyl-4-prop-2-enoyl-piperazin-1-yl]-7-(3-fluoro-2-methyl-phenyl)-1-(2-isopropyl-4-methyl-3-pyridyl)pyrido [2,3-d]pyrimidin-2-one]",0.034 µM,> 7.5 µM,0.028 µM,,
"C=CC(=O)N1C[C@H](C)N(c2nc(=O)n(-c3c(C)ccnc3C(C)C)c3nc(-c4cc(C)ccc4F)c(Cl)cc23)C[C@H]1C (atropisomer, axis not shown; (M)) [Example 92-60, (M)-6-Chloro-4-[(2S,5R)-2,5-dimethyl-4-prop-2-enoyl-piperazin-1-yl]-7-(2-fluoro-5-methyl-phenyl)-1-(2-isopropyl-4-methyl-3 pyridyl)pyrido [2,3-d]pyrimidin-2-one]",0.018 µM,> 7.5 µM,0.02 µM,,
"C=CC(=O)N1C[C@H](C)N(c2nc(=O)n(-c3c(C)ccnc3C(C)C)c3nc(-c4ccc(F)cc4F)c(Cl)cc23)C[C@H]1C (atropisomer, axis not shown; (M)) [Example 92-61, (M)-6-Chloro-7-(2,4-difluorophenyl)-4-[(2S,5R)-2,5-dimethyl-4-prop-2-enoyl-piperazin-1-yl]-1-(2-isopropyl-4-methyl-3-pyridyl)pyrido [2,3-d]pyrimidin-2-one]",0.027 µM,> 7.5 µM,0.008 µM,,
"C=CC(=O)N1C[C@H](C)N(c2nc(=O)n(-c3c(C)ccnc3C(C)C)c3nc(-c4cccc(F)c4OC)c(Cl)cc23)C[C@H]1C (atropisomer, axis not shown; (M)) [Example 92-62, (M)-6-Chloro-4-[(2S,5R)-2,5-dimethyl-4-prop-2-enoyl-piperazin-1-yl]-7-(3-fluoro-2-methoxy-phenyl)-1-(2-isopropyl-4-methyl-3-pyridyl)pyrido [2,3-d]pyrimidin-2-one]",0.075 µM,> 7.5 µM,0.01 µM,,
"C=CC(=O)N1C[C@H](C)N(c2nc(=O)n(-c3c(C)ccnc3C(C)C)c3nc(-c4cccc(F)c4C(F)(F)F)c(Cl)cc23)C[C@H]1C (atropisomer, axis not shown; (M)) [Example 92-63, (M)-6-Chloro-4-[(2S,5R)-2,5-dimethyl-4-prop-2-enoyl-piperazin-1-yl]-7-[3-fluoro-2-(trifluoromethyl)phenyl]-1-(2-isopropyl-4-methyl-3-pyridyl)pyrido [2,3-d]pyrimidin-2-one]",0.052 µM,> 7.5 µM,0.039 µM,,
"C=CC(=O)N1C[C@H](C)N(c2nc(=O)n(-c3c(C)ccnc3C(C)C)c3nc(-c4cccc(F)c4Cl)c(Cl)cc23)C[C@H]1C (atropisomer, axis not shown; (M)) [Example 92-64, (M)-6-Chloro-7-(2-chloro-3-fluoro-phenyl)-4-[(2S,5R)-2,5-dimethyl-4-prop-2-enoyl-piperazin-1-yl]-1-(2-isopropyl-4-methyl-3-pyridyl)pyrido [2,3-d]pyrimidin-2-one]",0.044 µM,> 7.5 µM,0.039 µM,,
"C=CC(=O)N1C[C@H](C)N(c2nc(=O)n(-c3c(C)ccnc3C(C)C)c3nc(-c4cc(F)ccc4F)c(Cl)cc23)C[C@H]1C (atropisomer, axis not shown; (M)) [Example 92-65, (M)-6-Chloro-7-(2,5-difluorophenyl)-4-[(2S,5R)-2,5-dimethyl-4-prop-2-enoyl-piperazin-1-yl]-1-(2-isopropyl-4-methyl-3-pyridyl)pyrido [2,3-d]pyrimidin-2-one]",0.046 µM,> 7.5 µM,0.066 µM,,
"C=CC(=O)N1C[C@H](C)N(c2nc(=O)n(-c3c(C)ccnc3C(C)C)c3nc(-c4cccc(F)c4F)c(Cl)cc23)C[C@H]1C (atropisomer, axis not shown; (M)) [Example 92-66, (M)-6-Chloro-7-(2,3-difluorophenyl)-4-[(2S,5R)-2,5-dimethyl-4-prop-2-enoyl-piperazin-1-yl]-1-(2-isopropyl-4-methyl-3-pyridyl)pyrido [2,3-d]pyrimidin-2-one]",0.033 µM,> 7.5 µM,0.034 µM,,
"C=CC(=O)N1C[C@H](C)N(c2nc(=O)n(-c3c(C)ccnc3C(C)C)c3nc(-c4ccccc4OC)c(Cl)cc23)C[C@H]1C (atropisomer, axis not shown; (M)) [Example 92-67, (M)-6-Chloro-4-[(2S,5R)-2,5-dimethyl-4-prop-2-enoyl-piperazin-1-yl]-1-(2-isopropyl-4-methyl-3-pyridyl)-7-(2-methoxyphenyl) pyrido[2,3-d]pyrimidin-2-one]",0.062 µM,> 7.5 µM,0.13 µM,,
"C=CC(=O)N1C[C@H](C)N(c2nc(=O)n(-c3c(C)ccnc3C(C)C)c3nc(-c4sccc4C)c(Cl)cc23)C[C@H]1C (atropisomer, axis not shown; (M)) [Example 93-1, (M)-6-Chloro-4-[(2S,5R)-2,5-dimethyl-4-prop-2-enoyl-piperazin-1-yl]-1-(2-isopropyl-4-methyl-3-pyridyl)-7-(3-methyl-2-thienyl)pyrido[2,3-d]pyrimidin-2-one]",,,0.055 µM,0.097 µM,> 7.5 µM
"C=CC(=O)N1C[C@H](C)N(c2nc(=O)n(-c3c(C)ccnc3C(C)C)c3nc(-c4ccccc4C(C)C)c(F)cc23)C[C@H]1C (atropisomer, axis not shown; (M)) [Example 94-1, (M)-4-[(2S,5R)-2,5-Dimethyl-4-prop-2-enoyl-piperazin-1-yl]-6-fluoro-1-(2-isopropyl-4-methyl-3-pyridyl)-7-(2-isopropylphenyl)pyrido[2,3-d]pyrimidin-2-one]",,,0.077 µM,0.107 µM,> 7.5 µM
